According to patent publication US20240262806A1, “INHIBITORS OF NLRP3” (PTC THERAPEUTICS, INC., priority 2021, published 2024):

What follows are molecules tested on NLRP3 inflammasome (assay: IL-1β Secretion Assay (NLRP3-dependent IL-1β secretion in PMA-differentiated THP-1 cells, nigericin activation, HTRF)). Conditions: Homo sapiens, THP-1, THP-1 cells, 100 ng/mL PMA 24 h, compound 20 h, 2.5 μM Nigericin 3 h; read-out: IC50 IL-1β Inhibition.
Assay type: cell-based
Procedure: Cells were washed 1× with 100 ul PBS and replaced with fresh RPMI+5% FBS. Compounds were serial diluted in DMSO with 3 fold dilution for a total of 7 concentrations.
Compounds, once produced and prepared according to the present invention, can be assessed in variety of assays to characterize their activities. […] IC50 values of IL1β inhibition were calculated from the plot of percentage of inhibition versus the inhibitor concentration by a logistics fit. TABLE I depict examples of compounds according to generic Formulae I. Data which is <1 nM is listed as *****; data 1-10 nM is listed as ****; data 10-100 nM is listed as ***, data 100-300 nM is listed as **, data >300 nM is listed as *.

First: CN1CCC[C@@H](Nc2nnc(-c3ccc(C(F)F)cc3F)c3ccncc23)C1 [Compound I-249]
Second: Cc1cc(C(F)(F)F)ccc1-c1nnc(N[C@@H]2CCCN(C)C2)c2cnccc12 [Compound I-290]
The IC50 of the first is higher: 10 to 100 nM for the first, 1 to 10 nM for the second. The second is the more potent here.

Compared with `CN1CCC[C@@H](Nc2nnc(-c3ccc(Cl)c(N)c3O)c3ccccc23)C1` [Compound I-163, (R)-2-Amino-3-chloro-6-(4-((1-methylpiperidin-3-yl)amino)phthalazin-1-yl)phenol], `Cc1ccc(O)c(-c2nnc(N[C@@H]3CCCN(C)C3)c3ccccc23)c1` [Compound I-17] is higher in IC50: 10 to 100 nM for the first, 100 to 300 nM for the second. The first is the more potent here.

`Cc1cc(F)c(-c2nnc(N[C@@H]3CCCN(C4CCOC4)C3)n3cccc23)c(OC(F)F)c1` (some centres unmarked) [Compound I-488] and `Cc1cc(F)c(-c2nnc(N[C@@H]3CCCN(CCO)C3)n3cccc23)c(OC(F)F)c1` [Compound I-463] fall in the same range of IC50: 10 to 100 nM for the first, 10 to 100 nM for the second.

Compared with `CNS(=O)(=O)c1cc(C(F)(F)F)ccc1-c1nnc(N[C@@H]2CCCN(C)C2)c2cnccc12` [Compound I-169], `CN1CCC[C@@H](Nc2nnc(-c3ccc(C(F)(F)F)cc3S(N)(=O)=O)c3ccncc23)C1` [Compound I-156, (R)-2-(4-((1-methylpiperidin-3-yl)amino)pyrido[3,4-d]pyridazin-1-yl)-5-(trifluoromethyl)benzene-sulfonamide] is higher in IC50: 10 to 100 nM for the first, 100 to 300 nM for the second.

First: FC(F)Oc1cc(C(F)(F)F)ccc1-c1nnc(N[C@@H]2CCCCCNC2)n2cccc12 [Compound I-324, 1-[2-(difluoromethoxy)-4-(trifluoromethyl)phenyl]-N-[(3R)-azocan-3-yl]pyrrolo[1,2-d][1,2,4]triazin-4-amine]
Second: CO[C@H]1CCC[C@@H](Nc2nnc(-c3ccc(C(F)(F)F)cc3OC(F)F)c3cccn23)C1 [Compound I-362]
The IC50 of the first is lower: 1 to 10 nM for the first, 10 to 100 nM for the second. The first is the more potent here.

Compared with `FC(F)Oc1cc(C(F)(F)F)ccc1-c1nnc(N[C@@H]2CCCN(CC(F)(F)F)C2)n2cccc12` [Compound I-494], `CCN1C[C@H](F)C[C@@H](Nc2nnc(-c3ccc(C(F)(F)F)cc3OC(F)F)c3cccn23)C1` [Compound I-538] is lower in IC50: 100 to 300 nM for the first, 1 to 10 nM for the second. The second is the more potent here.

Compared with `OCCN1CCC[C@@H](Nc2nnc(-c3ccc(Cl)cc3O)c3cncn23)C1` [Compound I-436], `CC(C)N1CCC[C@H](Nc2nnc(-c3ccc(Cl)cc3O)c3cncn23)C1` [Compound I-553] is lower in IC50: 1 to 10 nM for the first, less than 1 nM for the second. The second is the more potent here.

`CCc1cc(O)c(-c2nnc(N[C@@H]3CCCN(C)C3)n3cccc23)c(F)c1` [Compound I-563] and `CN1CCC[C@@H](Nc2nnc(-c3c(O)cc(C4CC4)cc3F)c3c(F)ccn23)C1` [Compound I-601] cannot be ordered by IC50: less than 1 nM for the first, less than 1 nM for the second.

Compared with `CN1CCC[C@@H](Nc2nnc(-c3ccc(C(F)(F)F)cc3CO)c3ccncc23)C1` [Compound I-190], `CCN1CCC[C@@H](Nc2nnc(-c3ccc(C(F)(F)F)cc3O)c3ccncc23)C1` [Compound I-43] is lower in IC50: 10 to 100 nM for the first, less than 1 nM for the second. The second is the more potent here.

First: Oc1cc(Br)ccc1-c1nnc(N[C@@H]2CCCOC2)n2nccc12 [Compound I-547]
Second: Oc1cc(Br)ccc1-c1nnc(N[C@@H]2CCCNC2)n2nccc12 [Compound I-391]
The IC50 of the first is higher: 10 to 100 nM for the first, 1 to 10 nM for the second.

Compared with `CN1CCC[C@@H](Nc2nnc(-c3ccc(C(F)(F)F)cc3O)c3c(F)ccn23)C1` [Compound I-393], `CN1C[C@H](F)C[C@@H](Nc2nnc(-c3ccc(C(F)(F)F)cc3O)c3cccn23)C1` [Compound I-410] is higher in IC50: less than 1 nM for the first, 1 to 10 nM for the second. The first is the more potent here.

Compared with `Oc1cc(C(F)(F)F)ccc1-c1nnc(N[C@@H]2CCCN(CCCF)C2)c2cnccc12` [Compound I-294], `OCCN1CCCC[C@@H](Nc2nnc(-c3ccc(C(F)(F)F)cc3O)c3ccncc23)C1` [Compound I-317] is higher in IC50: less than 1 nM for the first, 1 to 10 nM for the second.

`CN1CCC[C@@H](Nc2nnc(-c3c(O)cccc3C#N)c3ccncc23)C1` [Compound I-140] and `CN1CCC[C@@H](Nc2nnc(-c3c(O)cccc3F)c3ccccc23)C1` [Compound I-14] fall in the same range of IC50: 1 to 10 nM for the first, 1 to 10 nM for the second.

First: CN1C[C@H](O)C[C@@H](Nc2nnc(-c3ccc(C(F)(F)F)cc3OC(F)F)c3cccn23)C1 [Compound I-385, (3R,5R)-5-[[1-[2-(Difluoromethoxy)-4-(trifluoromethyl)phenyl]pyrrolo[1,2-d][1,2,4]triazin-4-yl]amino]-1-methyl-piperidin-3-ol]
Second: CCN1CCC[C@@H](Nc2nnc(-c3ccc(OC(F)F)cc3OC(F)F)c3cccn23)C1 [Compound I-613]
The IC50 of the first is higher: 100 to 300 nM for the first, 1 to 10 nM for the second.

`CCN1CCC[C@@H](Nc2nnc(-c3ccc(OC(F)(F)F)cc3O)c3cccn23)C1` [Compound I-609] and `OCCN1CCC[C@@H](Nc2nnc(-c3ccc(OC(F)F)cc3OC(F)F)c3cccn23)C1` [Compound I-614] fall in the same range of IC50: 1 to 10 nM for the first, 1 to 10 nM for the second.

`Cc1ccc(-c2nnc(N[C@@H]3CCCN(C)C3)n3nc(C)cc23)c(OC(F)(F)F)c1` [Compound I-396, (R)-2-Methyl-4-(4-methyl-2-(trifluoromethoxy)phenyl)-N-(1-methylpiperidin-3-yl)pyrazolo[1,5-d][1,2,4]triazin-7-amine] and `Cc1cc2c(N[C@@H]3CCCN(CCO)C3)nnc(-c3ccc(C(F)(F)F)cc3O)n2n1` [Compound I-338] fall in the same range of IC50: 10 to 100 nM for the first, 10 to 100 nM for the second.

First: COc1cc(C(F)(F)F)ccc1-c1nnc(N2CCNCC2)c2ccncc12 [Compound I-153]
Second: CN1CCCCC1CNc1nnc(-c2ccc(C(F)(F)F)cc2O)c2ccncc12 (centres unmarked) [Compound I-243]
The IC50 of the first is higher: 10 to 100 nM for the first, 1 to 10 nM for the second. The second is the more potent here.

`OCCN1CCC(CNc2nnc(-c3ccc(C(F)(F)F)cc3O)c3ccncc23)CC1` [Compound I-303] and `C[C@]1(O)C[C@H](Nc2nnc(-c3ccc(C(F)(F)F)cc3O)c3ccncc23)C1` [Compound I-316] fall in the same range of IC50: 1 to 10 nM for the first, 1 to 10 nM for the second.

`FC(F)(F)c1ccc(-c2nnc(N[C@@H]3CCCN(C4CCOC4)C3)n3cccc23)c(C(F)(F)F)c1` (some centres unmarked) [Compound I-517] and `OCCN1CCC[C@@H](Nc2nnc(-c3ccc(C4CC4)cc3C(F)F)c3cccn23)C1` [Compound I-509] fall in the same range of IC50: 1 to 10 nM for the first, 1 to 10 nM for the second.

First: C[C@H](O)CNc1nnc(-c2ccc(C(F)(F)F)cc2O)c2cccn12 [Compound I-473]
Second: O=C(O)CN1CCC[C@@H](Nc2nnc(-c3ccc(C(F)(F)F)cc3O)c3ccccc23)C1 [Compound I-98, (R)-2-(3-((4-(2-Hydroxy-4-(trifluoromethyl)phenyl)phthalazin-1-yl)amino)piperidin-1-yl)acetic acid]
The IC50 of the first is higher: 10 to 100 nM for the first, less than 1 nM for the second. The second is the more potent here.

First: CN1CCC[C@@H](Nc2nnc(-c3ccc(C(F)(F)F)cc3-c3ccn(C)n3)c3ccncc23)C1 [Compound I-232]
Second: CC(C)c1ccc(-c2nnc(N[C@@H]3CCCN(C)C3)c3cnccc23)c(C(C)C)c1 [Compound I-207]
The IC50 of the first is higher: 10 to 100 nM for the first, 1 to 10 nM for the second.

`C[C@]1(O)C[C@@H](Nc2nnc(-c3c(O)cc(C4CC4)cc3F)c3cccn23)C1` [Compound I-467] and `C[C@]1(O)C[C@@H](Nc2nnc(-c3c(O)cc(Cl)cc3F)c3cccn23)C1` [Compound I-434] fall in the same range of IC50: 1 to 10 nM for the first, 1 to 10 nM for the second.

Compared with `CN1CCC[C@@H](N(C)c2nnc(-c3ccc(C(F)(F)F)cc3O)c3c2CCCC3)C1` [Compound I-47, 2-[4-[Methyl-[(3R)-1-methyl-3-piperidyl]amino]-5,6,7,8-tetrahydrophthalazin-1-yl]-5-(trifluoromethyl)phenol], `CN1CCC[C@@H](Nc2nnc(-c3ccc(Cl)cc3OC(F)F)c3ccccc23)C1` [Compound I-133] is higher in IC50: less than 1 nM for the first, 1 to 10 nM for the second. The first is the more potent here.

`Cc1cc(Cl)cc(C)c1-c1nnc(N[C@@H]2CCCN(C)C2)c2cnccc12` [Compound I-218] gave an IC50 of less than 1 nM.
